Measurements: PMC11166409 (Transfusion Medicine and Hemotherapy, 2024)
pIC50: −log10 of the molar value. Residues, ends and D or L forms follow the SMILES beside them.

Target: HLA-A*02:01 (Homo sapiens, UniProt P04439, D140Y/D185E/D98H/E176V/E277Q/G131W/G231S/I119V/I121R/I166T/I218V/L300P/L318F/N151K/N90K/P208A/P217A/Q86G/Q94H/R138H/R169H/T345S)
Assay: Competition-based peptide binding assay on EBV-LCL48 cells

Row | SMILES | pIC50
1 | CC[C@H](C)[C@H](NC(=O)[C@@H](N)Cc1ccc(O)cc1)C(=O)N[C@@H](Cc1ccc(O)cc1)C(=O)N[C@@H](CC(N)=O)C(=O)N[C@@H](CCCNC(=N)N)C(=O)N[C@@H](CCC(=O)O)C(=O)N[C@@H](CCC(=O)O)C(=O)N[C@@H](CC(C)C)C(=O)N[C@H](C(=O)O)C(C)C (H-YIYNREELV-OH) | 5.41
2 | CC[C@H](C)[C@H](NC(=O)[C@@H](N)Cc1ccc(O)cc1)C(=O)N[C@@H](Cc1ccc(O)cc1)C(=O)N[C@@H](CC(N)=O)C(=O)N[C@@H](CCCNC(=N)N)C(=O)N[C@@H](CCC(=O)O)C(=O)N[C@@H](CCC(=O)O)C(=O)N[C@@H](Cc1ccccc1)C(=O)N[C@H](C(=O)O)C(C)C (H-YIYNREEFV-OH) | 5.31
